Reference: PMC6839509, “Fluorescent probes towards selective cathepsin B detection and visualization in cancer cells and patient samples” (Chemical Science, 2019)
Square brackets hold non-standard residues; d marks the D form. * marks the point of attachment. ACC = NC(=O)Cc1cc(=O)oc2cc(N*)ccc12; hTyr = N[C@@H](CCc1ccc(O)cc1)C(=O)O; OBn = c1ccc(CO*)cc1

Key:
[1] = molecular target: T1, human recombinant cathepsin L (Homo sapiens, UniProt P07711); assay: Kinetic parameters for inhibition (kobs/I), pseudo-first order; assay type: biochemical; conditions: inhibitor at least 5-fold excess over cathepsin, 100 μM ACC substrate, pH 5.5, 37 °C, average of at least triplicate, S.D. below 20%
T1 construct: with a 100 nM final concentration of each active cathepsin for 30 min; made in house
T1 sequence (P07711 114-333): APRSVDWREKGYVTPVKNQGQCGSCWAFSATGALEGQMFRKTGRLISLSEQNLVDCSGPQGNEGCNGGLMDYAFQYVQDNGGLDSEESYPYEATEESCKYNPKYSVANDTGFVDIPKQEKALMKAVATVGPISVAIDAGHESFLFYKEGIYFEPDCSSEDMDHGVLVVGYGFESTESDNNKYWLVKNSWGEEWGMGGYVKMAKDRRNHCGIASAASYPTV
Description: (§1) All kinetic experiments were performed using a CLARIOStar (BMG LABTECH) plate reader operating in fluorescence kinetic mode using 96-well plates (Corning®, Costar®). ACC-labeled fluorescent substrates were screened at 355 nm (excitation) and 460 nm (emission) wavelengths (gain 650). The cathepsin assay buffer was composed of 100 mM sodium acetate, 100 mM sodium chloride, 10 mM DTT, 1 mM EDTA, pH 5.5. All kinetic studies were performed at 37 °C.
(§2) The kinetic parameters of inhibition of three irreversible Cy5/Cy7 labeled ABPs were determined for cathepsins B, L, V, S and K, and the inhibition parameters of CA-074 and CA-074Me were determined for cathepsins B and L. The kobs/I were measured under pseudo-first order reaction conditions. Individual cathepsins were mixed with various concentrations of ABP (at least 5-fold excess over cathepsins) and 100 μM ACC fluorescent substrate. Experiments were repeated at least in triplicate, and the results are presented as an average (S.D. were below 20%).

[2] = molecular target: T2, human recombinant cathepsin B (Homo sapiens, UniProt P07858); assay: as above; assay type: biochemical; conditions: inhibitor at least 5-fold excess over cathepsin, 100 μM ACC substrate, pH 5.5, 37 °C, average of at least triplicate, S.D. below 20%
T2 construct: made in house
Description: as §1, §2

[3] = molecular target: T3, cathepsin B in human cancer cell lines (Homo sapiens, UniProt P07858); assay: Detection of active cathepsin B in cancer cells using Cy5-labeled MP-CB-2 probe (SDS-PAGE, Western blot); assay type: cell-based; conditions: A-431 cells; E-64d 25 μM; 1 μM MP-CB-2
T3 construct: we were able to label both cathepsin B active forms (single chain 29 kDa, and light chain 6 kDa); endogenous in cells; host or cells: human cancer cell lines (A-431, HCT-116, OVCAR-5, SK-OV-3, MDA-MB-231, U2-OS, PC-3, HeLa and others)
Description: 50 000 cells from fourteen adherent cancer cell lines were seeded into 12-well plates and allowed to attach overnight. In parallel, 50 000 cells from four non-adherent cancer cell lines were placed into 12-well plates and cultured overnight. The next day, MP-CB-2 ABP was added to the cells (1 μM final concentration) and incubated for various times (1, 4, 8, 24 hours). Next, cells were harvested, centrifuged at 500 × g for 5 min, cell pellets were washed with 1× DPBS, cells were centrifuged again at 500 × g for 5 min, and the supernatant was discarded. Finally, cell pellets were solubilized in 100 μL of 1× SDS/DTT and boiled for 5 min, cooled to room temperature and sonicated. Each sample (30 μL) was then subjected to SDS-PAGE analysis (4–12% Bis–Tris Plus 10-well gels, 200 V, 30 min), followed by protein transfer onto the membrane (0.2 μm nitrocellulose membrane, 10 V, 60 min). Ponceau S staining verified equal loading and transfer of proteins. Membranes were blocked in 2.5% BSA in TBS-T for 1 hour at room temperature. […] The images were then analyzed with the Image Studio software.
50 000 of selected cancer cells (A-431, HCT-116, OVCAR-5, SK-OV-3, MDA-MB-231, U2-OS, and PC-3) were seeded into 12-well plates and allowed to attach overnight. […] All images were analyzed with Image Studio software.

[4] = molecular target: T4, cathepsin B in cancer cell lysates (Homo sapiens, UniProt P07858); assay: Cathepsin B activity in cancer cell lysates with Ac-Cha-Leu-Glu(O-Bzl)-Arg-ACC substrate, with inhibitors; assay type: biochemical; conditions: lysates of selected cell lines (HeLa, A431, U2-OS, HCT-116, SKOV-3, MDA-MB-231); inhibitor pre-incubated 15 min; 100 μM substrate
T4 construct: we were able to label both cathepsin B active forms (single chain 29 kDa, and light chain 6 kDa); endogenous in cells; host or cells: human cancer cell lines (A-431, HCT-116, OVCAR-5, SK-OV-3, MDA-MB-231, U2-OS, PC-3, HeLa and others)
Description: Cell pellets from 50 000 cells were re-suspended in cathepsin assay buffer containing 0.5% Triton X-100 for cell lysis. Cell lysis was performed on ice for 30 min. After this time, cells were centrifuged at max speed for 5 min, and the supernatant (supplemented with 10 mM DTT) was used for the kinetic assay. In each assay 100 μM of cathepsin B selective substrate Ac-Cha-Leu-Glu(O-Bzl)-Arg-ACC was used, and the reaction progress was monitored for 30 min. In the experiments with inhibitors, cell lysate was pre-incubated with inhibitor for 15 min, followed by substrate addition and kinetic readout. Each measurement was performed three times and the substrate hydrolysis rate (RFU/s) in control (no inhibitor) was set to 100%, and other values were adjusted accordingly.

[5] = molecular target: T1, human recombinant cathepsin L; assay: Substrate hydrolysis kinetics (kcat, KM, kcat/KM) of ACC-labeled substrates; assay type: biochemical; conditions: cathepsin L 250 nM; pH 5.5, 37 °C; Michaelis–Menten; average of at least triplicate, S.D. below 15%
Description: as §1
(§3) The kinetic parameters for all ACC-labeled substrates were determined using Michaelis–Menten kinetic according to the protocol described by Poreba et al.[41] […] All experiments were performed at least in triplicate and the results are presented as average values (S.D. for all tested substrates was below 15%).

[6] = molecular target: T5, human recombinant cathepsin K (Homo sapiens, UniProt P43235); assay: as above; assay type: biochemical; conditions: cathepsin K 320 nM; pH 5.5, 37 °C; Michaelis–Menten; average of at least triplicate, S.D. below 15%
T5 construct: with a 100 nM final concentration of each active cathepsin for 30 min; made in house
T5 sequence (P43235 115-329): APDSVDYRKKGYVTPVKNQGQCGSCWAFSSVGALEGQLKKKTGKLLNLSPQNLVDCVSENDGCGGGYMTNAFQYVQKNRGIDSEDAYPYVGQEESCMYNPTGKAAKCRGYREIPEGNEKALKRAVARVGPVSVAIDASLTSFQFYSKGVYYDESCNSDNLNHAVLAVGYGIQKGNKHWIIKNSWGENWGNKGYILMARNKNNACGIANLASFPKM
Description: as §1, §3

[7] = molecular target: T6, human recombinant cathepsin V (Homo sapiens, UniProt O60911); assay: as above; assay type: biochemical; conditions: cathepsin V 200 nM; pH 5.5, 37 °C; Michaelis–Menten; average of at least triplicate, S.D. below 15%
T6 construct: with a 100 nM final concentration of each active cathepsin for 30 min; made in house
T6 sequence (O60911 114-334): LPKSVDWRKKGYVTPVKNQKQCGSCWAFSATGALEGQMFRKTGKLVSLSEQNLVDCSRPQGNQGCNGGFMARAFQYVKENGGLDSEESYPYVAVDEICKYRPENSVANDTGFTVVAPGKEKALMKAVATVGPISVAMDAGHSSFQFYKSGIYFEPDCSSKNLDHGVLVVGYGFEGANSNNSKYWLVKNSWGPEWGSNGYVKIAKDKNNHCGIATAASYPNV
Description: as §1, §3

[8] = molecular target: T7, human recombinant cathepsin S (Homo sapiens, UniProt P25774); assay: as above; assay type: biochemical; conditions: cathepsin S 150 nM; pH 5.5, 37 °C; Michaelis–Menten; average of at least triplicate, S.D. below 15%
T7 construct: with a 100 nM final concentration of each active cathepsin for 30 min; made in house
T7 sequence (P25774 115-331): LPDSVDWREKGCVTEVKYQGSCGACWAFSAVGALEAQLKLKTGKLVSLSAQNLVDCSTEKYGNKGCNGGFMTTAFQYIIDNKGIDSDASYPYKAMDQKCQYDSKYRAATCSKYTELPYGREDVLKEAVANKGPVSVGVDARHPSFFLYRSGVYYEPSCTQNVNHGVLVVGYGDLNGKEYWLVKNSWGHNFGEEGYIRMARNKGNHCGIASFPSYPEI
Description: as §1, §3

[9] = molecular target: T2, human recombinant cathepsin B; assay: as above; assay type: biochemical; conditions: cathepsin B 0.3–0.5 nM; 100 mM sodium acetate, 100 mM NaCl, 10 mM DTT, 1 mM EDTA, pH 5.5, 37 °C; Michaelis–Menten; average of at least triplicate, S.D. below 15%
Description: as §1, §3

**Q.** Which results are given for CCCNC(=O)[C@H]1O[C@@H]1C(=O)N[C@H](C(=O)N1CCC[C@H]1C(=O)OC)[C@@H](C)CC [CA-074Me]?
**A.** kobs/I Cat-L [1]: 152 M⁻¹ s⁻¹; kobs/I Cat-B [2]: 92 M⁻¹ s⁻¹; prevention of cathepsin B labeling by MP-CB-2 on pre-incubation with inhibitor [3]: completely prevented

**Q.** Which “kobs/I Cat-L” value [1] does the source give for CCCNC(=O)[C@H]1O[C@@H]1C(=O)N[C@H](C(=O)N1CCC[C@H]1C(=O)O)[C@@H](C)CC [CA-074] here?
**A.** n.i.

**Q.** And the “kobs/I Cat-B” value [2]?
**A.** 42,000 M^-1s^-1

**Q.** What about the “inhibition of cathepsin B activity in cell lysates” value [4] of the same compound?
**A.** completely depleted its catalytic activity

**Q.** For CCOC(=O)[C@H]1O[C@@H]1C(=O)N[C@@H](CC(C)C)C(=O)NCCC(C)C [E-64d], which “prevention of cathepsin B labeling by MP-CB-2 on pre-incubation with inhibitor” value [3] is on record?
**A.** completely prevented

**Q.** “Ac-[hTyr]LE(OBn)R-{ACC} (SMILES CC(=O)N[C@@H](CCc1ccc(O)cc1)C(=O)N[C@@H](CC(C)C)C(=O)N[C@@H](CCC(=O)OCc1ccccc1)C(=O)N[C@@H](CCCNC(=N)N)C(=O)Nc1ccc2c(CC(N)=O)cc(=O)oc2c1) [ACC-labeled tetrapeptide substrate]” was tested. Which “kcat/KM Cat L” value [5] did it give?
**A.** 1,170 M^-1s^-1

**Q.** What about the “kcat/KM Cat K” value [6] of the same compound?
**A.** 14 M⁻¹ s⁻¹

**Q.** What about the “kcat/KM Cat V” value [7] of the same compound?
**A.** 692 M⁻¹ s⁻¹

**Q.** What about the “kcat/KM Cat S” value [8] of the same compound?
**A.** 41 M⁻¹ s⁻¹

**Q.** What about the “kcat/KM Cat B” value [9] of the same compound?
**A.** 2,760,000 M^-1s^-1

**Q.** How did the “kcat/KM Cat L” value [5] turn out when “Ac-hLeu-Nle-Glu(Chx)-Arg-ACC [ACC-labeled tetrapeptide substrate]” was run?
**A.** 769 M⁻¹ s⁻¹

**Q.** What about the “kcat/KM Cat K” value [6] of the same compound?
**A.** 11 M⁻¹ s⁻¹

**Q.** And the “kcat/KM Cat V” value [7]?
**A.** 1,310 M^-1s^-1

**Q.** What about the “kcat/KM Cat S” value [8] of the same compound?
**A.** 25 M⁻¹ s⁻¹

**Q.** What about the “kcat/KM Cat B” value [9] of the same compound?
**A.** 2,600,000 M^-1s^-1
